“Also recorded” adds a separate entry of the source.
Tested on: vaccinia virus
Assay type: cell-based
For VACCINIA PLAQUE ASSAY 2 in this document: test concentration or dose not given here.

Compound | Class category of infected monolayers in plaque assay | VACCINIA PLAQUE ASSAY 2 | VACCINIA Plaque Assay | Plaque phenotype due to drug treatment (FIGS. 1, 2, 4)
CN1CCOc2cc(/C=C3\SC(=O)NC3=O)ccc21 [AS-605091, reference compound] | Class III | PINPOINT PLAQUES | SMALL PLAQUES | 
COc1ccccc1NS(=O)(=O)c1cccc(Nc2cc(-c3ccc([N+](=O)[O-])cc3)ncn2)c1 [Eph2_wbz 103] | Class III | PINPOINT | NO PLAQUES | 
COc1ccccc1NS(=O)(=O)c1cccc(NC(=O)CCOc2ccc3c(=O)[nH]ccc3c2)c1 [JAK2F] | Class II | SLIGHTLY SMALLER PLAQUES | SMALL PLAQUES | 
COc1ccc(-c2nc(C(N)=O)c3[nH]c(=O)n(-c4ccc(C)cc4)c3n2)cc1OC [dm-I-196] | Class III | PINPOINTS | SMALL PLAQUES, NO TAILS | small plaques with no comets; also recorded: smaller (pinpoint) plaques with no comets
Cc1ccc(-n2c(=O)[nH]c3c(C(N)=O)nc(-c4ccc(-c5cccs5)s4)nc32)cc1 [dm-I-184] |  | SLIGHTLY SMALLER PLAQUES |  | 
COc1ccc(Nc2nccn3c(Br)cnc23)cc1 [LG2-9] | Class III | PINPOINTS | SLIGHTLY SMALLER PLAQUES | 
O=C(c1ccccc1)c1ccc(-c2ccc3c(-c4ccc(Cl)c(F)c4)n[nH]c3n2)cc1 [APcK-35] | Class III | NO PLAQUES | SMALL PLAQUES, NO COMETS | 
CC(=O)Nc1ccc(-c2ccc3c(-c4ccc(Br)c(F)c4)n[nH]c3n2)cc1 [APcK-20] |  | NO PLAQUES |  | 
Cc1cc(-c2ccc3c(-c4ccc(Cl)c(F)c4)n[nH]c3n2)cc(C)c1O [APcK-107] | Class II | SMALLER PLAQUES THAN WT | SMALLER PLAQUES THAN WT | 
CCOC(=O)c1ccc(-c2ccc3c(-c4ccc(Cl)c(F)c4)n[nH]c3n2)cc1 [APcK-49] |  | SMALL PLAQUES |  | 
CC(=O)Nc1cccc(-c2ccc3c(-c4ccc(Br)cc4F)n[nH]c3n2)c1 [APcK-41] |  | NO PLAQUES |  | 
COC(=O)c1ccc(-c2cc(Nc3ccccc3OC)ncn2)cc1OC [Eph2_wbz 211] | Class II | SLIGHTLY SMALLER PLAQUES | SMALL PLAQUES Comets? | 
Cn1c(=O)c(-c2c(Cl)cccc2Cl)cc2cnc(NC3CCN(Cc4ccccc4)CC3)nc21 [YYA188] | Class III | NO PLAQUES | NO PLAQUES | 
O=C(Nc1cccc(-c2ccc3nnc(-c4ccc[nH]4)n3n2)c1)c1cccc([N+](=O)[O-])c1 [YYB34] |  |  | LARGE COMETS | 
COc1ccccc1NS(=O)(=O)c1cccc(Nc2cc(-c3ccc(NC(C)=O)cc3)ncn2)c1 [Eph2_wbz 106] | Class III | SMALLER PLAQUES THAN WT | NO PLAQUES | 
CCOC(=O)c1ccc(-c2ccc3c(-c4ccc(C#N)cc4)n[nH]c3n2)cc1 [APcK-55] |  | NO PLAQUES |  | 
COc1ccccc1NS(=O)(=O)c1cccc(Nc2cc(-c3ccc(NC(=O)CCC(=O)O)cc3)ncn2)c1 [Eph2_wbz 117] | Class III | SMALL PLAQUES; COMETS? | NO PLAQUES | 
COc1ccccc1NS(=O)(=O)c1cccc(Nc2cc(-c3ccc(C(F)(F)F)cc3)ncn2)c1 [Eph2_wbz 107] | Class II | SMALLER PLAQUES THAN WT | SMALLER PLAQUES THAN WT | 
COc1cc(-c2cnc3c(Nc4ccccc4)nccn23)ccc1O [LG2-62] | Class II | SMALL PLAQUES | SMALLER PLAQUES THAN WT | 
Brc1cnc2c(NCC3CC3)nccn12 [LG2-101] | Class III | PINPOINTS | SMALL PLAQUES, WITH TAILS | 
CCOC(=O)c1ccc(-c2n[nH]c3nc(-c4cc(C)c(O)c(C)c4)ccc23)cc1 [APcK-106] | Class III | PINPOINT PLAQUES | SMALLER PLAQUES THAN WT | 
COc1ccccc1Nc1cc(-c2ccc3[nH]ccc3c2)ncn1 [Eph2_wbz 216] | Class III | NO PLAQUES | SLIGHTLY SMALLER PLAQUES | 

Compound | Class category of infected monolayers in plaque assay | VACCINIA PLAQUE ASSAY 2 | VACCINIA Plaque Assay | Plaque phenotype due to drug treatment (FIGS. 1, 2, 4)
COc1ccccc1NS(=O)(=O)c1cccc(Nc2cc(-c3ccc(C(C)=O)cc3)ncn2)c1 [Eph2_wbz 110] | Class III | PINPOINT | PINPOINT PLAQUES | pinpoint plaque formations; also recorded: pinpoint plaques
O=C(Nc1cccc(-c2ccc3nncn3n2)c1)c1cccc([N+](=O)[O-])c1 [YYB31] | Class III | PINPOINTS | FEW COMETS | 
O=C(NCCO)c1cccc(-c2cnc3c(NCc4ccc(F)cc4)nccn23)c1 [LG2-96] | Class III | NO PLAQUES | NO PLAQUES | no pinpoint plaque formed; also recorded: no plaques
NC(=O)c1cccc(-c2ccc3c(-c4ccc(F)cc4)n[nH]c3n2)c1 [APcK-115] |  | SMALL PLAQUES |  | 
CCOC(=O)c1ccc(-c2n[nH]c3nc(-c4cccc(NC(C)=O)c4)ccc23)cc1 [APcK-105] | Class III | PINPOINT PLAQUES | NO PLAQUES | no pinpoint plaque formed; also recorded: no plaques
Cc1ccc(NC(=O)c2ccc(CN3CCN(C)CC3)cc2)cc1Nc1nccc(-c2cnccc2C)n1 [StiAF3_Ue] | Class III | NO PLAQUES | NO PLAQUES | 
COc1ccccc1Nc1cc(-c2ccc(NC(C)=O)cc2)ncn1 [Eph2_wbz 206] | Class II | SMALL PLAQUES | SMALL PLAQUES, COMETS? | small plaques with comets
Cc1ccc(NC(=O)c2ccc(CN3CCN(CCO)CC3)cc2)cc1Nc1nccc(-c2cccnc2)n1 [STI-OH] | Class III | SMALL PLAQUES | PINPOINT PLAQUES | 
CCOC(=O)c1ccc(-c2ccc3c(-c4ccc(C(=O)OC)cc4)n[nH]c3n2)cc1 [APcK-32] |  |  | LARGE COMETS | small plaque and large comets; also recorded: small plaques with large comets
Cc1ccc(-c2ccnc(Nc3cc(NC(=O)c4ccc(CN5CCN(C)CC5)cc4)ccc3C)n2)cn1 [WBZ-4] | Class II | SMALL PLAQUES | SMALL PLAQUES | 
COc1ccccc1Nc1cc(-c2ccc(O)cc2)ncn1 [Eph2_wbz 202] | Class III | PINPOINT PLAQUES | PLAQUES SMALLER THAN WT, STILL SEE COMETS | 
Cc1ccc(-n2c(=O)[nH]c3c(C(N)=O)nc(-c4c(F)cc(Cl)cc4F)nc32)cc1 [dm-I-187] | Class III | NO PLAQUES | SMALL PLAQUES | small plaques with no comets; also recorded: smaller (pinpoint) plaques with no comets
O=C(Nc1cccc(-c2ccc(Cl)nn2)c1)c1cccc([N+](=O)[O-])c1 [YYB19] | Class III | NO PLAQUES | PINPOINT PLAQUES | 
COc1ccc(-c2n[nH]c3nc(-c4cccc(NC(C)=O)c4)ccc23)cc1 [APcK-101] |  |  |  | damaged monolayer
COc1ccc(Nc2nccn3c(-c4cccc(C(N)=O)c4)cnc23)cc1 [LG2-13] | Class III | SLIGHTLY SMALLER PLAQUES | PINPOINT PLAQUES | 
COc1ccc(OC)c(S(=O)(=O)Nc2cccc(-c3ccc4nnc(-c5cccs5)n4n3)c2)c1 [YYB44] | Class II | SMALL PLAQUES | MEDIUM PLAQUES | 
COc1cc(C(=O)Nc2cccc(-c3ccc4nnc(-c5ccccc5)n4n3)c2)cc(OC)c1OC [YYB21] |  |  |  | damaged monolayer
COc1ccccc1NS(=O)(=O)c1cccc(Nc2cc(-c3ccc(O)cc3)ncn2)c1 [Eph2_wbz 102] | Class III | no plaques | NO PLAQUES | 
COc1ccccc1NS(=O)(=O)c1cccc(Nc2cc(-c3ccc(OC(C)=O)cc3)ncn2)c1 [Eph2_wbz 105] | Class III | NO PLAQUES | SMALLER PLAQUES THAN WT | small plaques with comets
COc1ccccc1Nc1cc(-c2ccc(NC(=O)CCC(=O)O)cc2)ncn1 [Eph2_wbz 217] |  |  | SLIGHTLY SMALLER PLAQUES | 
CC(C)c1ccc(Nc2nccn3c(Br)cnc23)cc1 [LG2-60] |  | NO PLAQUES |  | 

Reference: patent publication US8268809B2, “Kinase inhibitors for preventing or treating pathogen infection and method of use thereof” (priority 2006, dated 2012)
